These results are taken from PubChem BioAssay (NCI).

What all share (assay): inhibition of tumour cell growth, NCI panel, 48 h
Assay [1] has as its system A549 NSCLC.
For assay [2], the system named is HCT-15 colon.
In assay [3] the test system is HOP-62 NSCLC.
Assay [4] has as its system SNB-19 CNS.
In assay [5] the test system is U251 CNS.
The test system of assay [6] is UACC-62 melanoma.
For assay [7], the system named is UO-31 renal.
Assay [8] relates to NCI-H460 lung.
Assay [9] concerns MCF7 breast.
In assay [10] the test system is NCI/ADR-RES ovarian.

Molecules are shown by their SMILES. Where “and” joins values, the source holds several entries; their conditions need not be identical. Equal values may be shown once.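 Five compound concentrations were applied to cells in 96-well plates for 48 hours; endpoints were derived by simple linear interpolation of the resulting dose-response curve. Abbreviation: GI50, concentration required for 50% inhibition of growth. TGI marks complete inhibition of growth.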

As for `Nc1c(O)cc(N=C2C(=O)C=CC=C2C(=O)O)c(O)c1C(=O)O`, the TGI in assay [1], in assay [2], in assay [3], in assay [4], in assay [5] and in [6] was > 100 µM each time. In addition, the TGI in assay [7] was > 100 µM.
Consider `Cc1cc(-c2ccccc2)nc(Nc2nc3ccccc3o2)n1`, for which the TGI in assay [1], in assay [2], in assay [3], in assay [8], in [4] and in assay [5] was > 100 µM in each case. For the same compound, the TGI in [6] and in assay [7] was > 100 µM in each case.
For the compound `COC(=O)C1=C(c2ccc(OC)c(OC)c2)OC(c2cc(OC)c(OC)c(OC)c2)C1` (centres undefined), the TGI in assay [1] was > 100 µM; in assay [3] it was 47.4 µM; in assay [8], > 100 µM; in [5], > 100 µM; in assay [7], > 100 µM.
Consider `CN=C(NC(=S)N(C)C)N(C)C`, for which the TGI in assay [1], in [2], in assay [3], in [8], in [4] and in assay [5] was > 100 µM throughout. The TGI in [6] and in assay [7] was > 100 µM in each case.
In the case of `O=[N+]([O-])c1ccc(C2CC(c3ccccc3Cl)=Nc3ccccc3S2=O)cc1` (centres undefined), the TGI in [1] is 38 µM; in assay [2], 5.3 µM; in assay [3], 23.4 µM; in assay [9], 7.92 µM; in [8], 17.9 µM; in [4], 12.4 µM. Also, the values for the TGI in [6] and in assay [7] were 6.73 µM and 4.74 µM, respectively.
With `Cc1cccc(C(C)C)c1N1C(=O)C(=O)C(c2nc3ccccc3o2)C(=O)C1=O`, the TGI in assay [1], in assay [2], in assay [3], in assay [8], in assay [4] and in assay [5] was > 100 µM throughout. Besides, the TGI in [6] and in assay [7] was > 100 µM in each case.
Consider `N#CC1CCCCOCCOCCOCCOCCOCCCCCC1=O` (centres undefined), for which the TGI in assay [1], in assay [2], in [3], in assay [8], in assay [4] and in assay [5] was > 100 µM in each case. The TGI in assay [6] and in [7] was > 100 µM throughout.
As for `CCCCC(C)C(OC(=O)CC(CC(=O)O)C(=O)O)C(CC(C)CC(O)CCCCC(O)CC(O)C(C)N)OC(=O)CC(CC(=O)O)C(=O)O` (centres undefined), the TGI in assay [1], in assay [2], in assay [3], in assay [8], in assay [4] and in assay [5] was > 100 µM throughout. In addition, the TGI in assay [6] and in assay [7] was > 100 µM throughout.
`C#CC[N+](C)(CC#C)CC#C`: the TGI in assay [1], in [2], in assay [3], in [8], in assay [4] and in assay [6] was > 100 µM each time. Moreover, the TGI in assay [7] is > 100 µM.
Consider `COc1cc(NS(C)(=O)=O)ccc1Nc1c2ccccc2nc2ccccc12`, for which the GI50 is 0.198 µM and 0.0635 µM and 0.0637 µM in assay [1]; 1.7 µM and 1.38 µM and 1.45 µM in assay [2]; 0.551 µM and 0.221 µM and 0.198 µM in assay [3]; 0.0587 µM and 0.0338 µM and 0.0425 µM in [8]; 0.528 µM and 0.464 µM and 0.495 µM in assay [4]; 0.528 µM and 0.35 µM and 0.358 µM in assay [5]. Besides, the GI50 in [6] is 0.491 µM and 0.951 µM and 0.705 µM; in [7] it was 1.39 µM and 0.288 µM and 0.231 µM.
`O=C(CC1(O)C(=O)Nc2ccc(Br)cc21)c1ccc(Cl)cc1Cl` (centres undefined): the TGI in assay [1], in assay [2], in [3], in assay [8], in assay [4] and in assay [5] was > 100 µM each time. In addition, the TGI is 33.7 µM in assay [6] and > 100 µM in [7].
With `O=[N+]([O-])c1ccc(Cl)c(C2CC(c3cccc4ccccc34)=Nc3ccccc3S2)c1` (centres undefined), the TGI in assay [1] was > 100 µM; in assay [2], > 100 µM; in assay [3] it was > 100 µM; in assay [8], > 100 µM; in [4] it was > 100 µM; in assay [5], 65.9 µM. Moreover, the TGI in assay [6] was 59 µM; in [7], > 66.8 µM.
Regarding `O=C(O)C1CCCCC1c1c2ccc(=O)c(O)c-2oc2c(O)c(O)ccc12` (centres undefined), the TGI is 48.6 µM in assay [1]; 94.4 µM in assay [3]; 37.5 µM in assay [9]; > 100 µM in [8]; > 100 µM in assay [4]; 24.8 µM in [5]. The TGI in [6] and in assay [7] was > 100 µM throughout.
Consider `S=c1nc(COc2ccc(Cl)cc2Cl)[nH][nH]1`, for which the TGI in assay [1], in [2], in assay [8], in [4], in assay [5] and in [6] was > 100 µM each time. Further, the TGI in assay [7] is > 100 µM.
On to `CS(=O)(=O)NNS(=O)(=O)c1ccccc1`, for which the TGI in assay [1], in [2], in assay [3], in assay [8], in [4] and in [5] was > 100 µM throughout. Besides, the TGI in [6] and in assay [7] was > 100 µM throughout.
On to `Cc1nnc2c3nnc(C)n3c3ccccc3n12`, for which the TGI in assay [1], in assay [2], in assay [3], in assay [8], in assay [4] and in [5] was > 100 µM each time. Further, the TGI in [6] and in assay [7] was > 100 µM throughout.
As for `NC(=O)c1c([N+](=O)[O-])cc(C(F)(F)F)cc1[N+](=O)[O-]`, the TGI in assay [1], in assay [3], in assay [8], in assay [4], in assay [5] and in assay [6] was > 100 µM each time. For the same compound, the TGI in assay [7] is > 100 µM.
Turning to `O=C(NCCO)c1ccc([N+](=O)[O-])cc1`, the TGI in assay [1], in assay [2], in assay [3], in assay [8], in [4] and in assay [5] was > 100 µM in each case. In addition, the TGI in [6] and in assay [7] was > 100 µM in each case.
With `Nc1cc(O)ccc1N=Nc1ccc(-c2nc3ccccc3[nH]2)cc1`, the GI50 in assay [1] was > 100 µM; in [2] it was 37.2 µM; in assay [3] it was > 100 µM; in [8], 10.2 µM; in assay [10] it was > 100 µM; in [4] it was > 100 µM. For the same compound, the GI50 in assay [5] was 30.3 µM; in assay [6], 17.1 µM; in [7], 30.5 µM. Besides, the TGI was > 100 µM in assay [1]; > 100 µM in [2]; > 100 µM in assay [3]; 35.8 µM in [8]; > 100 µM in assay [10]; > 100 µM in assay [4]. The TGI in assay [5], in assay [6] and in [7] was > 100 µM in each case.
Take `C[N+](C)(C)CC1CCC/C1=N/O` (centres undefined): the TGI was > 100 µM in [1]; 38.8 µM in assay [2]; > 100 µM in assay [3]; > 100 µM in assay [8]; > 100 µM in [4]; > 100 µM in assay [5]. For the same compound, the TGI in [6] and in assay [7] was > 100 µM throughout.
For the compound `Cn1c(=O)c(NC(=O)C(Cl)(Cl)Cl)nc2ccccc21`, the TGI in assay [1], in assay [2], in [3], in assay [8], in assay [4] and in assay [5] was > 100 µM in each case. In addition, the TGI in [6] and in assay [7] was > 100 µM in each case.
Take `O=C1NC(=O)C(=Nc2cccc3c(=O)[nH][nH]c(=O)c23)C(c2nc3ccccc3s2)C1=O` (centres undefined): the TGI in assay [1], in assay [2], in assay [3], in [8], in assay [4] and in [5] was > 100 µM in each case. Moreover, the TGI in assay [6] and in assay [7] was > 100 µM in each case.
With `COc1cc2c(cc1OC)C(Sc1ccc(SC)cc1)c1c(nc(N)c(C#N)c1N)O2` (centres undefined), the GI50 in [1] is 2.05 µM; in [2] it was 1.44 µM; in assay [3], 1.78 µM; in assay [9], 1.1 µM; in [8], 2.08 µM; in [4], 1.45 µM. Besides, the GI50 in assay [5] is 1.37 µM; in assay [6], 1.23 µM; in assay [7], 1.33 µM. The TGI was determined as 3.68 µM in assay [1]; 2.91 µM in assay [2]; 3.26 µM in [3]; 3.54 µM in assay [9]; 4.49 µM in [8]; 2.8 µM in assay [4]. Moreover, the results for the TGI in assay [5], in [6] and in [7] were 2.66 µM, 2.51 µM and 2.6 µM, respectively.
For the compound `O=C(CCC(=O)Nc1ccc(Cl)c(Cl)c1)CC(=O)c1ccc(F)cc1`, the TGI in assay [1], in assay [3], in [8], in assay [4], in [5] and in assay [6] was > 100 µM in each case. The TGI in assay [7] was > 100 µM.
As for `COC(=O)CCC1CCc2c(OC)ccc(OC)c2C1=O` (centres undefined), the TGI in [1], in assay [2], in assay [3], in assay [8], in assay [4] and in [5] was > 100 µM throughout. Further, the TGI in [6] and in assay [7] was > 100 µM throughout.
With `Cc1ccc(NC(=O)C2C(=O)N(c3ccc(C)c(C)c3)C(=O)/C2=N\NC(N)=O)cc1C` (centres undefined), the TGI in assay [1], in assay [2], in [3], in assay [8], in assay [4] and in assay [5] was > 100 µM in each case. In addition, the TGI in assay [6] and in assay [7] was > 100 µM each time.
With `Cc1noc2c1C(=O)CCC2`, the TGI in [6] and in [7] was > 100 µM in each case.
In the case of `CN(C)c1ccc(/C=C/c2ccc(/C=C/c3ccc(N(C)C)cc3)cc2)cc1`, the TGI in assay [1], in [2], in assay [8], in assay [4], in assay [5] and in assay [6] was > 100 µM throughout. The TGI in assay [7] was > 100 µM.
On to `O=S(=O)(O)c1ccc(N=Nc2nc(C(F)(F)F)c(C(F)(F)F)[nH]2)cc1`, for which the TGI was > 100 µM in assay [1]; > 100 µM in assay [2]; > 100 µM in assay [3]; > 100 µM in assay [8]; 71.1 µM in assay [4]; > 100 µM in [5]. Also, the TGI in assay [6] is 72.2 µM; in [7] it was > 100 µM.
As for `O=C(CSc1ncn[nH]1)C[P+](c1ccccc1)(c1ccccc1)c1ccccc1`, the TGI in assay [1], in [2], in [3], in [8], in [4] and in [6] was > 100 µM throughout. In addition, the TGI in assay [7] was > 100 µM.
In the case of `CCCCCCCCCCCCCCCCNCCCN(C)CCCN`, the TGI is 32.1 µM in assay [1]; 32.7 µM in assay [2]; 34.1 µM in assay [8]; 31.5 µM in assay [4]; 31.8 µM in [5]; 33.2 µM in assay [6]. Further, the TGI in assay [7] came out at 31.6 µM.
As for `CN(C)C(=Nc1nc(=[N+](C)C)ss1)N(C)C`, the TGI in assay [1], in [2], in assay [3], in assay [8], in [4] and in assay [5] was > 100 µM throughout. For the same compound, the TGI in assay [6] and in [7] was > 100 µM each time.
